Results from ChEMBL document CHEMBL5729782, “6-heteroaryloxy benzimidazoles and azabenzimidazoles as JAK2 inhibitors” (2023).
Several values for one entry are separate records, joined by “and”; a condition that tells them apart may be missing. Identical values can stand only once.

Assay: Streptavidin-coated magnetic beads were treated with biotinylated small molecule ligands for 30 minutes at room temperature to generate affinity resins for kinase assays. The liganded beads were blocked with excess biotin and washed with blocking buffer (SeaBlock (Pierce), 1% BSA, 0.05% Tween 20, 1 mmol/L DTT) to remove unbound ligand and to reduce nonspecific phage binding. Binding reactions were assembled by combining kinases, liganded affinity beads, and test compounds in 1× binding buffer (1×PBS, 0.05% Tween 20, 0.1% BSA, 1 mmol/L DTT). Test compound was prepared as 111× stocks in 100% DMSO and directly diluted into the assay wells. All reactions were performed in polypropylene 384-well plates in a final volume of 0.02 mL. The assay plates were incubated at room temperature with shaking for 1 hour and the affinity beads were washed with wash buffer (1×PBS, 0.05% Tween 20). The beads were then re-suspended in elution buffer (1×PBS, 0.05% Tween 20, 0.5 μmol/L non-biotinylated affinity ligand) and incubated at room temperature with shaking for 30 minutes. The kinase concentration in the eluate was measured by qPCR.

Question: For `COc1c(Oc2ccnc(NC(C)=O)c2)cnc2nc(Nc3cc(C(C)(C)C)n(-c4ccn(CC(F)F)c4)n3)n(C)c12`, which Kd is on record?
Answer: Its Kd is under 10 nM.

Question: Which Kd does the source give for `CC(=O)Nc1cc(Oc2ccc3nc(Nc4cc(C5CC5)cn(CC5CC[C@@H]5O)c4=O)n(C)c3c2)ccn1` (some centres not stated) here?
Answer: Its Kd is under 10 nM.

Question: With `CC(=O)Nc1cc(Oc2cnc3nc(Nc4cc5n(n4)CCCC5(C)C)n(C)c3c2Cl)ccn1` as the molecule, how does the Kd read?
Answer: The Kd was under 10 nM.

Question: For `CNc1cc(Oc2ccnc(NC(C)=O)c2)cnc1NC(=S)Nc1cc(C2CC2)cn(C)c1=O`, which Kd is on record?
Answer: Its Kd is under 10 nM.

Question: Which Kd does the source give for `CC(=O)Nc1cc(Oc2ccc3nc(Nc4cc(C5CC5)cn(C5CCC5O)c4=O)n(C)c3c2)ccn1` (configuration not stated) here?
Answer: Its Kd is < 10 nM (3×) and in the range around 30 nM.

Question: For `CNC(=O)c1cc(Oc2ccc3nc(Nc4cc(C(C)(C)C)nn4C)n(C)c3c2)ccn1`, which Kd is on record?
Answer: The Kd was “in the range around 525 nM”.

Question: For `CC(=O)Nc1cc(Oc2cnc3nc(NC4=CC(C(F)(F)F)=CC(C)C4=O)n(C)c3c2Cl)ccn1` (configuration not stated), which Kd is on record?
Answer: The Kd was under 10 nM.

Question: Which Kd does the source give for `CC(=O)Nc1cc(Oc2cnc3nc(Nc4cc(C(C)C)n(CCC#N)n4)n(C)c3c2C)ccn1` here?
Answer: The Kd was under 10 nM.

Question: With `CC(C)(C)OC(=O)N1CC2(CC(n3nc(C(F)(F)F)cc3N)C2)C1` as the molecule, how does the Kd read?
Answer: The Kd was under 10 nM.

Question: With `CO[C@H]1CCOC[C@@H]1n1cc(C(F)(F)F)cc(Nc2nc3ccc(Oc4ccnc(NC(C)=O)c4)cc3n2C)c1=O` as the molecule, how does the Kd read?
Answer: The Kd was under 10 nM.

Question: With `COCCN1CC[C@@H](n2nc(NC3Nc4ncc(Oc5ccnc(NC(=O)C6CC6)c5)c(Cl)c4N3C)cc2C(C)(C)C)C1` (some centres not stated) as the molecule, how does the Kd read?
Answer: The Kd was under 10 nM.

Question: With `COc1c(Oc2ccnc(NC(=O)C3CC3)c2)cnc2nc(Cc3cc(C4CC4)cn(C)c3=O)n(C)c12` as the molecule, how does the Kd read?
Answer: The Kd was under 10 nM.

Question: With `CC(=O)Nc1cc(Oc2cnc3nc(Nc4cc(C(C)(C)C)n([C@H]5CCC[C@@H]5O)n4)n(C)c3c2)ccn1` as the molecule, how does the Kd read?
Answer: Its Kd is “in the range around 30 nM”.

Question: For `CC(=O)Nc1cc(Oc2cnc3nc(Nc4cc(C(C)(C)C)n(C[C@H]5CCN(C)CC5(F)F)n4)n(C)c3c2)ccn1`, which Kd is on record?
Answer: The Kd was “in the range around 3000 nM”.

Question: For `COc1c(Oc2ccnc(NC(C)=O)c2)cnc2nc(Nc3nc([C@H]4CCOC4)c(C(C)(C)C)s3)n(C)c12`, which Kd is on record?
Answer: Its Kd is under 10 nM.

Question: With `CC(=O)Nc1ccc(Oc2cnc3c(c2)nc(Nc2cc(C(C)(C)C)n([C@H]4CCOC4)n2)n3C)cn1` as the molecule, how does the Kd read?
Answer: The Kd was under 10 nM.

Question: For `COc1c(Oc2ccnc(NC(C)=O)c2)cnc2nc(Nc3nc([C@@H]4CCOC4)c(C(C)(C)C)s3)n(C)c12`, which Kd is on record?
Answer: The Kd was under 10 nM.

Question: For `CO[C@H]1CCC1Cn1cc(C2CC2)cc(Nc2nc3ccc(Oc4ccnc(NC(C)=O)c4)cc3n2C)c1=O` (some centres not stated), which Kd is on record?
Answer: The Kd was under 10 nM.

Question: With `CNc1cc(Oc2ccnc(NC(C)=O)c2)cnc1NC(=S)Nc1cc2n(n1)CCCC2(C)C` as the molecule, how does the Kd read?
Answer: The Kd was under 10 nM.

Question: With `CCCCO[C@H]1C[C@@H](n2nc(Nc3nc4ccc(Oc5ccnc(NC(C)=O)c5)cc4n3C)cc2C(C)(C)C)C1` as the molecule, how does the Kd read?
Answer: Its Kd is under 10 nM.

Question: Which Kd does the source give for `CC(=O)Nc1cc(Oc2cnc3nc(Nc4cc(C5CC5)cn(C)c4=O)n(C)c3c2Cl)ccn1` here?
Answer: The Kd was “in the range around 30 nM”.

Question: With `CC(=O)Nc1cc(Oc2cnc3nc(Nc4cc(C(C)C)n(CC(F)F)n4)n(C)c3c2)ccn1` as the molecule, how does the Kd read?
Answer: The Kd was under 10 nM.

Question: For `COc1c(Oc2ccnc(NC(=O)C3CC3)c2)cnc2nc(Nc3cc(C(C)(C)C)n(C[C@H](C)O)n3)n(C)c12`, which Kd is on record?
Answer: The Kd was under 10 nM.

Question: Which Kd does the source give for `COc1c(Oc2ccnc(NC(=O)C3CC3)c2)cnc2nc(Nc3cc(C(C)(C)C)n(C[C@@H](C)O)n3)n(C)c12` here?
Answer: Its Kd is under 10 nM.

Question: Which Kd does the source give for `CC(=O)Nc1cc(Oc2ccc3nc(Nc4cc(C(F)(F)F)cn(C[C@@H]5COCCO5)c4=O)n(C)c3c2)ccn1` here?
Answer: The Kd was “in the range around 525 nM”.

Question: For `CC(=O)Nc1cc(Oc2cnc3nc(Nc4cc(C(C)C)n(CCF)n4)n(C)c3c2)ccn1`, which Kd is on record?
Answer: Its Kd is under 10 nM.

Question: With `COc1ccc(Cn2cc(Cc3ccc(Nc4nc5ccc(Oc6ccnc(NC(C)=O)c6)cc5n4C)cc3C(F)(F)F)cn2)cc1` as the molecule, how does the Kd read?
Answer: The Kd was “in the range around 525 nM”.
